The values below come from patent publication US9273040B2 (Merck Sharp & Dohme Corp., priority 2011, dated 2016).

In test [1] the target is T1, human Nav1.5 channels stably expressed in HEK 293 cells (Homo sapiens, UniProt Q14524).
T1 construct: expressed in transfected cells
In words: PatchXpress 7000 automated patch-clamp, sodium current. The following applies: selectivity over Nav1.5. In kind it is cell-based. The method in brief: (§1)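 IC50 values came from Hill-equation fits of rundown-corrected inhibition. PatchXpress recordings at 22° C held cells 20 mV negative to V0.5 inact and applied 10 Hz trains of 30 ms steps to −20 mV (Nav1.7) or an 8000 ms prepulse 7 mV positive to V0.5 inact. […]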

Test [2] deals with T2, human Nav1.7 channels stably expressed in HEK 293 cells (Homo sapiens, UniProt Q15858).
T2 construct: expressed in transfected cells
The description is as above. The conditions noted are these: 22° C., read-out: potency for the Nav 1.7 sodium ion channel (as measured by PatchXpress). In kind it is cell-based. An outline of the steps:
as §1

T1 sequence (Q14524 whole entry): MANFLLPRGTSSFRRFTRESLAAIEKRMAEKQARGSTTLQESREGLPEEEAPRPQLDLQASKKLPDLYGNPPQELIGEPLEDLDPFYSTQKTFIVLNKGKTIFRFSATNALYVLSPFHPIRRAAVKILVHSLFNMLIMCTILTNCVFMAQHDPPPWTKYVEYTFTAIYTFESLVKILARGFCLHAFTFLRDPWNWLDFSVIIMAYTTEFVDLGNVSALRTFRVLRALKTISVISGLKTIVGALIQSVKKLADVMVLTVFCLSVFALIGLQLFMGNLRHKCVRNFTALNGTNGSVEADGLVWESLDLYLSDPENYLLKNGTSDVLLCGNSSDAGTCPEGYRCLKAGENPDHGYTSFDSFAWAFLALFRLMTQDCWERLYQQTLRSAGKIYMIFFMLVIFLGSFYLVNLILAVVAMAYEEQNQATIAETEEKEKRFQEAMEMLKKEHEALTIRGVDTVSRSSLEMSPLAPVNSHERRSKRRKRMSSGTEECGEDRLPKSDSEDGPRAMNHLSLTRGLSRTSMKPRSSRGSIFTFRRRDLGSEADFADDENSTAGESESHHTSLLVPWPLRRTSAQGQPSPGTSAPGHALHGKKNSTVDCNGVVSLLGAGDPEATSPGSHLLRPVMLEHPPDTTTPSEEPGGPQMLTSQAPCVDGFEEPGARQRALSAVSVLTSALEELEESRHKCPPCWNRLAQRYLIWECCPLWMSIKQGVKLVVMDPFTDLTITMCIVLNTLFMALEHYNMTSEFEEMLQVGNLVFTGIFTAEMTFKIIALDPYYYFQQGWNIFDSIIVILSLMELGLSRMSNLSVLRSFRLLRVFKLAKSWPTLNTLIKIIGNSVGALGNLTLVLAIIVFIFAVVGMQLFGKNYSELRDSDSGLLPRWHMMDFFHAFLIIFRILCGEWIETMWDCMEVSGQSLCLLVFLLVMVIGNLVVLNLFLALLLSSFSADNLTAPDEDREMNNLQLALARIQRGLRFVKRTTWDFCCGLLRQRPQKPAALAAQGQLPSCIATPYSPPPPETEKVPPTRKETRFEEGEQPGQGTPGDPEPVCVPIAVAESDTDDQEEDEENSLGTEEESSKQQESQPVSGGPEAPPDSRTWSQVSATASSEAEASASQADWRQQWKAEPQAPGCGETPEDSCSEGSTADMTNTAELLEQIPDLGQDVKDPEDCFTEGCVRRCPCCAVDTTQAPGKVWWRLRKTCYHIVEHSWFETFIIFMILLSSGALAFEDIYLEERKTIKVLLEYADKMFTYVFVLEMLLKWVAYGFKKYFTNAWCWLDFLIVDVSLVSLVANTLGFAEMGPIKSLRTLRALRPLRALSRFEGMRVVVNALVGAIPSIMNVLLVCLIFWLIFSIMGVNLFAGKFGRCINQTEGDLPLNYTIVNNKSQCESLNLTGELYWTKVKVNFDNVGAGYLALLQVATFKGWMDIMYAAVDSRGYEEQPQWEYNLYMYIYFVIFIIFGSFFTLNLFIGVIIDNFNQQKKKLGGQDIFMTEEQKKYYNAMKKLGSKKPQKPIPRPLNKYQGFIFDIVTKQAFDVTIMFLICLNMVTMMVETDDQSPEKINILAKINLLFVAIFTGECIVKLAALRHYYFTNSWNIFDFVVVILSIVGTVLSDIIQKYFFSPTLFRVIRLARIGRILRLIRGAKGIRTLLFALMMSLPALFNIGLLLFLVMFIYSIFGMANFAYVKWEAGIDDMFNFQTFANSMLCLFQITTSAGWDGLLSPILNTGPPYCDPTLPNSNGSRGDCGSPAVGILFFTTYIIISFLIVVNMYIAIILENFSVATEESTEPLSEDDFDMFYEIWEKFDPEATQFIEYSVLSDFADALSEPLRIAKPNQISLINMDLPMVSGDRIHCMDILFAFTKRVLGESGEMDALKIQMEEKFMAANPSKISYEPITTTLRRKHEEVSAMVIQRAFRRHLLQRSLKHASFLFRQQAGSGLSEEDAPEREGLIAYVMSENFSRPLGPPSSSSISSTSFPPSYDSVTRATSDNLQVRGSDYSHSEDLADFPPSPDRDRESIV
T2 sequence (Q15858 whole entry): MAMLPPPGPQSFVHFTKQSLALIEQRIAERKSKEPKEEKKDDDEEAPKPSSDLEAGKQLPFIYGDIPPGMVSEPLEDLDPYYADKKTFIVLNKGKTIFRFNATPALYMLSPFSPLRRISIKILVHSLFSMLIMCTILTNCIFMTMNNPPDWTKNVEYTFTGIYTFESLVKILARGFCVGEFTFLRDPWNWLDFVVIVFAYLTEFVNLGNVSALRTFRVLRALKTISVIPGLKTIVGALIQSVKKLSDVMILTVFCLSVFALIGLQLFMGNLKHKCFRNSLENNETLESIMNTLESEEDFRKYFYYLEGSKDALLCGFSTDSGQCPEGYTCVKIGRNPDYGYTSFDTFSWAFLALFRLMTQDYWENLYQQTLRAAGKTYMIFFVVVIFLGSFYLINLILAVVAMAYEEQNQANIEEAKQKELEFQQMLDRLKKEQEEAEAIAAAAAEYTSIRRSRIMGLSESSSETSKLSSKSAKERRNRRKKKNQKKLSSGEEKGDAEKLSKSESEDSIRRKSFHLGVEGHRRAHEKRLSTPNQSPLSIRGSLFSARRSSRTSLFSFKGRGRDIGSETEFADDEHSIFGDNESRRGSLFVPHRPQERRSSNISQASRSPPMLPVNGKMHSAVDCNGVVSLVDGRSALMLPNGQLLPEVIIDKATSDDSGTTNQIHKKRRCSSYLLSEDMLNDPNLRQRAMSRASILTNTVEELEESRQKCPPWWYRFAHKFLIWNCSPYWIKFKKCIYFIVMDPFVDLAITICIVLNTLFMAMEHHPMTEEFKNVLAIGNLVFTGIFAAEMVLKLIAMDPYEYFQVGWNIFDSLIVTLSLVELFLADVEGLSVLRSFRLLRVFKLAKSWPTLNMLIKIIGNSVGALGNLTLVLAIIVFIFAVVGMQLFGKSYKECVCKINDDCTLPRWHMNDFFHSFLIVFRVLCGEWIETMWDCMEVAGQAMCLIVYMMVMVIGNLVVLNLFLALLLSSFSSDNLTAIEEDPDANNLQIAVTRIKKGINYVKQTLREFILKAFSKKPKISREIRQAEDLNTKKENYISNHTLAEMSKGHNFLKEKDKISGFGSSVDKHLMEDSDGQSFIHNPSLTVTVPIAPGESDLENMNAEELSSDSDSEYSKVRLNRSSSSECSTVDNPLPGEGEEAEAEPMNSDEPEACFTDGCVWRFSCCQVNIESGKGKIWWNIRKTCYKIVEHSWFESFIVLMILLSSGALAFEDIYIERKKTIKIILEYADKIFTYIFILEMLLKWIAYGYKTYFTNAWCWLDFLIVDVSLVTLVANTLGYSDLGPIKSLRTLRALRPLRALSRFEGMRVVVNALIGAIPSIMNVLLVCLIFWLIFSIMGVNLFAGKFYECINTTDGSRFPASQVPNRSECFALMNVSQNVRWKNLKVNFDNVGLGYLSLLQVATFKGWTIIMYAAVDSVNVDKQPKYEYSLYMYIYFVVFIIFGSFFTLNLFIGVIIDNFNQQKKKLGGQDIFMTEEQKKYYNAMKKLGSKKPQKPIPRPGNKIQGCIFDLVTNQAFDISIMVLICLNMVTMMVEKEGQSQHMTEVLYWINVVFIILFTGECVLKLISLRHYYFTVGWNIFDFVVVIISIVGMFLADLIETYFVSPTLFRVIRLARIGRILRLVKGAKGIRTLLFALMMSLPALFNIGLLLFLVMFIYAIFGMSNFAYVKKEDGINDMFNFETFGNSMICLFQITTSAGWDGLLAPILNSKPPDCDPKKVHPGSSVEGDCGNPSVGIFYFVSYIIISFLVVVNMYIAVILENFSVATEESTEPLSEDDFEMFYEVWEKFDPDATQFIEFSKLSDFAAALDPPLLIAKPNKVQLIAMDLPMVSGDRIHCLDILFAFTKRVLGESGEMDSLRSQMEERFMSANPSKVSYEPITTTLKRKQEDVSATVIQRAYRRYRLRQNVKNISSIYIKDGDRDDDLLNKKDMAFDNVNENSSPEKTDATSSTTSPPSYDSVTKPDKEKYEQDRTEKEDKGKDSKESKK

With `CC1(C)CC(n2c(=O)oc3cc(S(=O)(=O)Nc4ncns4)c(F)cc32)c2ccccc2O1` (stereo not drawn) [Compound 39-7, 3-(2,2-dimethyl-3,4-dihydro-2H-chromen-4-yl)-5-fluoro-2-oxo-N-1,2,4-thiadiazol-5-yl-2,3-dihydro-1,3-benzoxazole-6-sulfonamide], in test [1], the “ratio of Nav 1.5:Nav 1.7 potency, determined by PatchXpress measurement” value (shortened to “ratio of Nav 1.5:Nav 1.7 potency”) was 137. The IC50 in test [2] turned out to be 218 nM.
The matching figures for `O=c1oc2cc(S(=O)(=O)Nc3ncns3)c(F)cc2n1C1COCc2ccccc21` (stereo not drawn) [Compound 39-8, 3-(3,4-dihydro-1H-isochromen-4-yl)-5-fluoro-2-oxo-N-1,2,4-thiadiazol-5-yl-2,3-dihydro-1,3-benzoxazole-6-sulfonamide]: 29 and 204 nM.
The matching figures for `O=C(c1ccccc1)N1CCC2(CC1)CC(n1c(=O)oc3cc(S(=O)(=O)Nc4ncns4)c(F)cc31)c1cc(F)ccc1O2` (stereo not drawn) [Compound 39-9, 5-fluoro-3-[6-fluoro-1′-(phenylcarbonyl)-3,4-dihydrospiro[chromene-2,4′-piperidin]-4-yl]-2-oxo-N-1,2,4-thiadiazol-5-yl-2,3-dihydro-1,3-benzoxazole-6-sulfonamide]: 54 and 168 nM.
In the same order, the values of `O=c1oc2cc(S(=O)(=O)Nc3ncns3)c(F)cc2n1C1CCCc2ccccc21` (stereo not drawn) [Compound 39-10, 5-fluoro-2-oxo-3-(1,2,3,4-tetrahydronaphthalen-1-yl)-N-1,2,4-thiadiazol-5-yl-2,3-dihydro-1,3-benzoxazole-6-sulfonamide] are 199 and 168 nM.
Consider `O=c1oc2cc(S(=O)(=O)Nc3ncns3)c(F)cc2n1C1CC2(CCN(Cc3ccccc3)CC2)Oc2ccccc21` (stereo not drawn) [Compound 39-11, 3-(1′-benzyl-3,4-dihydrospiro[chromene-2,4′-piperidin]-4-yl)-5-fluoro-2-oxo-N-1,2,4-thiadiazol-5-yl-2,3-dihydro-1,3-benzoxazole-6-sulfonamide], for which the “ratio of Nav 1.5:Nav 1.7 potency” value in test [1] worked out at 114. The IC50 in test [2] was 166 nM.
The matching figures for `CC1(C)CCC(n2c(=O)oc3cc(S(=O)(=O)Nc4ncns4)c(F)cc32)c2ccccc21` (stereo not drawn) [Compound 39-12, 3-(4,4-dimethyl-1,2,3,4-tetrahydronaphthalen-1-yl)-5-fluoro-2-oxo-N-1,2,4-thiadiazol-5-yl-2,3-dihydro-1,3-benzoxazole-6-sulfonamide]: 38 and 159 nM.
The matching figures for `O=c1oc2cc(S(=O)(=O)Nc3ncns3)c(F)cc2n1C1CCOc2ccc(F)cc21` (stereo not drawn) [Compound 39-13, 5-fluoro-3-(6-fluoro-3,4-dihydro-2H-chromen-4-yl)-2-oxo-N-1,2,4-thiadiazol-5-yl-2,3-dihydro-1,3-benzoxazole-6-sulfonamide]: 295 and 112 nM.
The matching figures for `O=c1oc2cc(S(=O)(=O)Nc3ncns3)c(F)cc2n1[C@@H]1CC2(CCC2)Oc2ccccc21` [Compound 39-14, 3-[(4R)-3,4-dihydrospiro[chromene-2,1′-cyclobutan]-4-yl]-5-fluoro-2-oxo-N-1,2,4-thiadiazol-5-yl-2,3-dihydro-1,3-benzoxazole-6-sulfonamide]: 99 and 60 nM.
In the case of `O=c1oc2cc(S(=O)(=O)Nc3ncns3)c(F)cc2n1[C@@H]1C[C@@H](c2ccccc2)Oc2ccccc21` [Compound 39-15, 5-fluoro-2-oxo-3-[(2S,4R)-2-phenyl-3,4-dihydro-2H-chromen-4-yl]-N-1,2,4-thiadiazol-5-yl-2,3-dihydro-1,3-benzoxazole-6-sulfonamide], the “ratio of Nav 1.5:Nav 1.7 potency” value in test [1] stood at 36. In addition, the IC50 in test [2] was 54 nM.
In the same order, the values of `O=c1oc2cc(S(=O)(=O)Nc3ncns3)c(F)cc2n1[C@H]1CC2(CCC2)Oc2ccccc21` [Compound 39-16, 3-[(4S)-3,4-dihydrospiro[chromene-2,1′-cyclobutan]-4-yl]-5-fluoro-2-oxo-N-1,2,4-thiadiazol-5-yl-2,3-dihydro-1,3-benzoxazole-6-sulfonamide] are 149 and 53 nM.
The matching figures for `O=c1oc2cc(S(=O)(=O)Nc3ncns3)c(F)cc2n1[C@H]1CC2(CCC2)Oc2ccc(F)cc21` [Compound 39-17, 5-fluoro-3-[(4S)-6-fluoro-3,4-dihydrospiro[chromene-2,1′-cyclobutan]-4-yl]-2-oxo-N-1,2,4-thiadiazol-5-yl-2,3-dihydro-1,3-benzoxazole-6-sulfonamide]: 115 and 53 nM.
In the same order, the values of `Cc1csc(NS(=O)(=O)c2ccc3c(c2)oc(=O)n3C(C)c2ccccc2)n1` (stereo not drawn) [Compound 40-5, N-(4-methyl-1,3-thiazol-2-yl)-2-oxo-3-(1-phenylethyl)-2,3-dihydro-1,3-benzoxazole-6-sulfonamide] are 25 and 1190 nM.
As for `C[C@H](c1ccccc1)n1c(=O)oc2cc(S(=O)(=O)Nc3nccs3)ccc21` [Compound 41-4, (R)-2-oxo-3-(1-phenylethyl)-N-(thiazol-2-yl)-2,3-dihydrobenzo[d]oxazole-6-sulfonamide], in test [1], the “ratio of Nav 1.5:Nav 1.7 potency” value is on record as 187. In addition, the IC50 in test [2] was 161 nM.
For the compound `COC(=O)[C@H](c1ccccc1)n1c(=O)oc2cc(S(=O)(=O)Nc3nccs3)ccc21` [Compound 41-6, methyl (2S)-[2-oxo-6-(1,3-thiazol-2-ylsulfamoyl)-1,3-benzoxazol-3(2H)-yl](phenyl)ethanoate], the “ratio of Nav 1.5:Nav 1.7 potency” value in test [1] came to 54. Besides, the IC50 in test [2] turned out to be 553 nM.
In the same order, the values of `C[C@H](c1cccc2c1CNCC2)n1c(=O)oc2cc(S(=O)(=O)Nc3nccs3)ccc21` [Compound 42-1, (R)-2-oxo-3-(1-(1,2,3,4-tetrahydroisoquinolin-8-yl)ethyl)-N-(thiazol-2-yl)-2,3-dihydrobenzo[d]oxazole-6-sulfonamide] are 1017 and 30 nM.
In the same order, the values of `C[C@H](c1ccccc1)n1c(=O)oc2cc(S(=O)(=O)Nc3nccs3)c(F)cc21` [Compound 43-2, (R)-5-fluoro-2-oxo-3-(1-phenylethyl)-N-(thiazol-2-yl)-2,3-dihydrobenzo[d]oxazole-6-sulfonamide] are 88 and 68 nM.
In the same order, the values of `O=c1oc2cc(S(=O)(=O)Nc3nccs3)c(F)cc2n1C1CCCc2ccncc21` (stereo not drawn) [Compound 43-3, 5-fluoro-2-oxo-3-(5,6,7,8-tetrahydroisoquinolin-8-yl)-N-1,3-thiazol-2-yl-2,3-dihydro-1,3-benzoxazole-6-sulfonamide] are 91 and 550 nM.
On to `O=c1oc2cc(S(=O)(=O)Nc3nccs3)c(F)cc2n1C1CCCc2cccnc21` (stereo not drawn) [Compound 43-4, 5-fluoro-2-oxo-3-(5,6,7,8-tetrahydroquinolin-8-yl)-N-1,3-thiazol-2-yl-2,3-dihydro-1,3-benzoxazole-6-sulfonamide], for which the “ratio of Nav 1.5:Nav 1.7 potency” value in test [1] came out at 71. Moreover, the IC50 in test [2] was found to be 424 nM.
